Measured values from patent US10894817B2, “Fatty acid modified urocortin-2 analogs for the treatment of diabetes and chronic kidney disease” (priority 2016, dated 2021).
Several values for one entry are separate records, joined by “and”; a condition that tells them apart may be missing. Identical values can stand only once. Starred links: 1 amine or outer side, 2 acyl side, 3 side chain; linkers in the order of their positions; H or OH if unused. Non-standard residues stand in square brackets, D forms with d. Residues, ends and D or L forms follow the SMILES beside them. Groups on a side chain read outwards from the residue. *: point of attachment. C20 diacid = O=C(O)CCCCCCCCCCCCCCCCCCC(=O)*; C18 diacid = O=C(O)CCCCCCCCCCCCCCCCC(=O)*; γGlu = O=C(O)[C@H](CCC(=O)[*:2])N[*:1]; NMeI = CC[C@H](C)[C@H](NC)C(=O)O; AEEA = NCCOCCOCC(=O)O

Experiments:
[1] = biological target: T1, human CRHR1 (Homo sapiens, UniProt P34998); test: human CRHR1 cell-based cAMP assay (Y79 cells); conditions: Y79 cells with endogenous human CRHR1, mean ± SEM of runs, read-out: hCRHR1 Average EC50
T1 construct: which expresses endogenous human CRHR1; host or cells: Y79 human retinoblastoma cells
T1 sequence (P34998 24-415): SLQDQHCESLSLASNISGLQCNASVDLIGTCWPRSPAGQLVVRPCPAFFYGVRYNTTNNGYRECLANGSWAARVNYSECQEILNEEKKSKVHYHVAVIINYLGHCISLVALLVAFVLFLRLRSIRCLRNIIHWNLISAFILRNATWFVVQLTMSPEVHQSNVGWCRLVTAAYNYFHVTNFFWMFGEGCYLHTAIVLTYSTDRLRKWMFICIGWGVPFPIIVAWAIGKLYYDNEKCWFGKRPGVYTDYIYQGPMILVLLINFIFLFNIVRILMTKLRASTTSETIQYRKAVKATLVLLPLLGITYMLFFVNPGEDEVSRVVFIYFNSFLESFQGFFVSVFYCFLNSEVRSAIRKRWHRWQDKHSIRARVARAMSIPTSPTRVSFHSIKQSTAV
Protocol: CRHR agonistic activity is measured in a cell-based cAMP assay. Serial dilutions of the test peptides are made in assay buffer containing Hank's Balanced Salt Solution (HBSS, without phenol red) supplemented with 20 mM HEPES and 0.05% lactalbumin enzymatic hydrolysate (LAH) (“assay buffer”). The highest concentration that is used starts from 1 μM in the human CRHR2b, whereas 100 μM starting concentration is used in the human CRHR1 assay. A one to three dilution of the test peptides is used in both assays.
The human Retinoblastoma cell line Y79 (ATCC #HTB-18), which expresses endogenous human CRHR1, is used in the human CRHR1 assay. The cells are grown in RPMI 1640 (Hyclone, #SH30255) containing 20% fetal bovine serum and 10 mM HEPES, in suspension culture. Cells are centrifuged to remove the culture media and washed once in HBSS supplemented with 20 mM HEPES. The cells are resuspended in the assay buffer and 20,000 cells are used per treatment in the human CRHR1 assay.
The cells are dispensed into Costar 96-well black polystyrene half area EIA/RIA plates (Corning Incorporated, Corning, N.Y.) followed by the addition of the diluted peptides, each at a volume of 20 μL. The agonist induced cAMP levels are detected using a HTRF cAMP Dynamic 2 kit (CisBio, Bedford, Mass.). After incubation at 37° C. for 30 min, the assay is stopped by cell lysis via the addition of 20 μL of d2-labeled cAMP and followed by 20 μL of cryptate-labeled anti-cAMP antibody, as described by the manufacturer. Cellular cAMP (as a result of agonist stimulation) competes with the d2-labeled cAMP for binding to the antibody. HTRF detection is performed on an Envision plate reader (Perkin Elmer Life and Analytical Sciences, Waltham, Mass.) by measuring ratiometric emission at 620 and 665 nm after excitation at 320 nm.
The data are converted to picomoles of cAMP using a standard curve obtained from the same assay performed with varying concentrations of unlabeled cAMP. Percent of the maximum activation of the cells is calculated using converted picomole cAMP data by comparing to the amount of cAMP produced by 1 μM human UCN2 for the human CRHR2b or 1 μM human UCN1 for the human CRHR1 assay. The data are analyzed using a Curve Fitting Tool to calculate ED50. Numeric values shown below in Table 1 represent the mean of multiple runs (number of runs shown in parentheses) following the mean value±SEM.

[2] = Pharmacokinetics, single subcutaneous dose, mice; conditions: male, CD-1, mouse, plasma, sc, 350 nmol/kg
Protocol: (§1) Plasma concentrations of compounds were determined by LC/MS methods. Each method measured the intact compound; peptide plus linked time extension. For each assay, the compound and an analog, used as an internal standard (IS), were extracted from 100% mouse, rat or monkey plasma (25 μl) using acetonitrile. Two distinct layers were formed upon centrifugation with the compound and the IS located in the supernatant layer. An aliquot of the supernatant (80 μl) was transferred to a Thermo Protein Precipitation Plate with water (150 μl) and formic acid (25 μl) followed by mixing. A final 31% acetonitrile in 10% formic acid sample (10 μl) was loaded onto a Supelco Analytical Discovery BIO Wide Pore C5-3 column (5 cm×1 mm, 3 μm). The column effluent was directed into a Thermo Q-Exactive mass spectrometer for detection and quantitation.
Male CD-1 mice were administered a single subcutaneous dose (350, 386 or 388 nmol/kg) of a compound described herein in 20 mM Tris-HCl Tris Buffer (pH 7 or 8) at a volume of 0.05 or 0.06 mL/animal. Blood was collected at 6, 12, 24, 48, 72, 96, 120 and 168 hours postdose for pharmacokinetic characterization (101).

[3] = Pharmacokinetics, single subcutaneous dose, rats; conditions: for half-life: T1/2, male Sprague Dawley rats
Protocol: as §1
Male Sprague Dawley rats were administered a single subcutaneous dose (50 or 150 nmol/kg) of a compound described herein in 20 mM Tris-HCl Tris Buffer (pH 8) at a volume of 0.26 or 0.77 mL/kg.

[4] = Pharmacokinetics, single subcutaneous dose, monkeys; conditions: for half-life: T1/2, male Cynomolgus monkeys
Protocol: as §1
Male Cynomolgus monkeys were administered a single subcutaneous dose or intravenous dose (96.4 nmol/kg) of a compound described herein in 20 mM Tris-HCl Buffer (pH 7) at a volume of 1 mL/kg. Blood was collected from each animal at 2, 6, 24, 48, 72, 96, 168, 240, 336, 408, and 504 hours postdose for pharmacokinetic characterization.
Male Cynomolgus monkeys were also administered a single subcutaneous dose (50 nmol/kg) of a compound described herein in 20 mM Tris-HCl Buffer (pH 8) at a volume of 0.26 mL/kg. Blood was collected from each animal at 3, 6, 12, 24, 48, 72, 96, 120, 168, 192, 240, 336, 408, and 504 hours postdose for pharmacokinetic characterization.

[5] = male Sprague Dawley rats, single 50 nmol/kg s.c., individual animal
[6] = male Sprague Dawley rats, single 150 nmol/kg s.c., individual animal
[7] = male, Sprague Dawley, rat, plasma, sc, 50 nmol/kg
[8] = male, Sprague Dawley, rat, plasma, sc, 50 nmol/kg, male Sprague Dawley rats, single 50 nmol/kg s.c., Mean
[9] = male, Sprague Dawley, rat, plasma, sc, 50 nmol/kg, male Sprague Dawley rats, single 50 nmol/kg s.c., individual animal
[10] = male, Sprague Dawley, rat, plasma, sc, 150 nmol/kg
[11] = male, Sprague Dawley, rat, plasma, sc, 150 nmol/kg, male Sprague Dawley rats, single 150 nmol/kg s.c., Mean
[12] = male, Sprague Dawley, rat, plasma, sc, 150 nmol/kg, male Sprague Dawley rats, single 150 nmol/kg s.c., individual animal
[13] = male Cynomolgus monkeys, single 50 nmol/kg s.c., individual animal
[14] = male, cynomolgus monkey, plasma, sc, 50 nmol/kg
[15] = male, cynomolgus monkey, plasma, sc, 50 nmol/kg, male Cynomolgus monkeys, single 50 nmol/kg s.c., Mean
[16] = male, cynomolgus monkey, plasma, sc, 50 nmol/kg, male Cynomolgus monkeys, single 50 nmol/kg s.c., individual animal

Structure (SMILES)	EC50 [1] [µM]	AUC(0-inf) [2] [µM·h]	Cmax [2] [nM]	Tmax [2] [h]	Cmax [3, 5]	Cmax [3, 6]	AUC(0-inf) [3, 7] [µM·h]	Cmax [3, 7] [nM]	Tmax [3, 8] [h]	Tmax [3, 9] [h]	AUC(0-inf) [3, 10] [µM·h]	Cmax [3, 10] [nM]	Tmax [3, 11] [h]	Tmax [3, 12] [h]	AUC(0-inf) [4, 13]	Cmax [4, 13]	AUC(0-inf) [4, 14] [µM·h]	Cmax [4, 14] [nM]	Tmax [4, 15] [h]	Tmax [4, 16] [h]	further results
CC[C@H](C)[C@H](NC)C(=O)N[C@H](C(=O)N[C@@H](CC(C)C)C(=O)N[C@@H](CO)C(=O)N[C@@H](CC(C)C)C(=O)N[C@@H](CC(=O)O)C(=O)N[C@H](C(=O)N1CCC[C@H]1C(=O)N[C@H](C(=O)NCC(=O)N[C@@H](CC(C)C)C(=O)N[C@@H](CC(C)C)C(=O)N[C@@H](CCC(N)=O)C(=O)N[C@H](C(=O)N[C@@H](CC(C)C)C(=O)N[C@@H](CC(C)C)C(=O)N[C@@H](CCC(=O)O)C(=O)N[C@@H](CCC(N)=O)C(=O)N[C@@H](CCC(=O)O)C(=O)N[C@@H](CCCCN)C(=O)N[C@@H](CCC(N)=O)C(=O)N[C@@H](CCC(=O)O)C(=O)N[C@@H](CCCCN)C(=O)N[C@@H](CCC(=O)O)C(=O)N[C@@H](CCCCN)C(=O)N[C@@H](CCC(N)=O)C(=O)N[C@@H](CCC(N)=O)C(=O)N[C@@H](C)C(=O)N[C@@H](CCCCNC(=O)COCCOCCNC(=O)COCCOCCNC(=O)CC[C@H](NC(=O)CC[C@H](NC(=O)CCCCCCCCCCCCCCCCC(=O)O)C(=O)O)C(=O)O)C(=O)N[C@H](C(=O)N[C@@H](CC(N)=O)C(=O)N[C@@H](C)C(=O)N[C@@H](CCC(N)=O)C(=O)N[C@H](C(=O)N[C@@H](CC(C)C)C(=O)N[C@@H](C)C(=O)N[C@@H](CCC(N)=O)C(=O)N[C@H](C(N)=O)C(C)C)[C@@H](C)CC)[C@@H](C)O)[C@@H](C)CC)[C@@H](C)CC)C(C)C)C(C)C [Example 3] (H-[NMeI]VLSLDVPIGLLQILLEQEKQEKEKQQAK([AEEA-AEEA-γGlu-γGlu-C18 diacid])TNAQILAQV-NH2)	> 100	35.5	1340	12	188 nM and 160 nM and 141 nM	531 nM and 496 nM and 470 nM	7.17	163	20	12	24.4	499	24	24	69.88 µM·h and 58.414 µM·h	441 nM and 432 nM	64.1	437	36	48	CL/F [2]: 0.165 mL/min/kg; half-life [2]: 14 h; CL/F [3, 5]: 0.125 mL/min/kg and 0.122 mL/min/kg; T1/2 [3, 5]: 14 h and 17 h; CL/F [3, 6]: 0.103 mL/min/kg and 0.107 mL/min/kg; CL/F ([3]; male, Sprague Dawley, rat, plasma, sc, 50 nmol/kg, CL/F, male Sprague Dawley rats, single 50 nmol/kg s.c., Mean): 0.117 mL/min/kg; CL/F ([3]; male, Sprague Dawley, rat, plasma, sc, 50 nmol/kg, CL/F, male Sprague Dawley rats, single 50 nmol/kg s.c., individual animal): 0.103 mL/min/kg; half-life ([3]; male, Sprague Dawley, rat, plasma, sc, 50 nmol/kg, single 50 nmol/kg s.c., Mean): 16 h; half-life ([3]; male, Sprague Dawley, rat, plasma, sc, 50 nmol/kg, single 50 nmol/kg s.c., individual animal): 16 h; CL/F ([3]; male, Sprague Dawley, rat, plasma, sc, 150 nmol/kg, CL/F, male Sprague Dawley rats, single 150 nmol/kg s.c., Mean): 0.1 mL/min/kg; CL/F ([3]; male, Sprague Dawley, rat, plasma, sc, 150 nmol/kg, CL/F, male Sprague Dawley rats, single 150 nmol/kg s.c., individual animal): 0.1 mL/min/kg; half-life ([3]; male, Sprague Dawley, rat, plasma, sc, 150 nmol/kg, single 150 nmol/kg s.c., Mean): 16 h; half-life ([3]; male, Sprague Dawley, rat, plasma, sc, 150 nmol/kg, single 150 nmol/kg s.c., individual animal): 16 h; CL/F [4, 13]: 0.0143 mL/min/kg; T1/2 [4, 13]: 70 h; CL/F ([4]; male, cynomolgus monkey, plasma, sc, 50 nmol/kg, CL/F, male Cynomolgus monkeys, single 50 nmol/kg s.c., Mean): 0.0132 mL/min/kg; CL/F ([4]; male, cynomolgus monkey, plasma, sc, 50 nmol/kg, CL/F, male Cynomolgus monkeys, single 50 nmol/kg s.c., individual animal): 0.012 mL/min/kg; half-life ([4]; male, cynomolgus monkey, plasma, sc, 50 nmol/kg, single 50 nmol/kg s.c., Mean): 85 h; half-life ([4]; male, cynomolgus monkey, plasma, sc, 50 nmol/kg, single 50 nmol/kg s.c., individual animal): 101 h
CC[C@H](C)[C@H](NC)C(=O)N[C@H](C(=O)N[C@@H](CC(C)C)C(=O)N[C@@H](CO)C(=O)N[C@@H](CC(C)C)C(=O)N[C@@H](CC(=O)O)C(=O)N[C@H](C(=O)N1CCC[C@H]1C(=O)N[C@H](C(=O)NCC(=O)N[C@@H](CC(C)C)C(=O)N[C@@H](CC(C)C)C(=O)N[C@@H](CCC(N)=O)C(=O)N[C@H](C(=O)N[C@@H](CC(C)C)C(=O)N[C@@H](CC(C)C)C(=O)N[C@@H](CCC(=O)O)C(=O)N[C@@H](CCC(N)=O)C(=O)N[C@@H](CCC(=O)O)C(=O)N[C@@H](CCCCN)C(=O)N[C@@H](CCC(N)=O)C(=O)N[C@@H](CCC(=O)O)C(=O)N[C@@H](CCCCN)C(=O)N[C@@H](CCC(=O)O)C(=O)N[C@@H](CCCCN)C(=O)N[C@@H](CCC(N)=O)C(=O)N[C@@H](CCC(N)=O)C(=O)N[C@@H](C)C(=O)N[C@@H](CCCCNC(=O)COCCOCCNC(=O)COCCOCCNC(=O)CC[C@H](NC(=O)CC[C@H](NC(=O)CCCCCCCCCCCCCCCCCCC(=O)O)C(=O)O)C(=O)O)C(=O)N[C@H](C(=O)N[C@@H](CC(N)=O)C(=O)N[C@@H](C)C(=O)N[C@@H](CCC(N)=O)C(=O)N[C@H](C(=O)N[C@@H](CC(C)C)C(=O)N[C@@H](C)C(=O)N[C@@H](CCC(N)=O)C(=O)N[C@H](C(N)=O)C(C)C)[C@@H](C)CC)[C@@H](C)O)[C@@H](C)CC)[C@@H](C)CC)C(C)C)C(C)C [Example 4] (H-[NMeI]VLSLDVPIGLLQILLEQEKQEKEKQQAK([AEEA-AEEA-γGlu-γGlu-C20 diacid])TNAQILAQV-NH2)	> 100	51.6	1160	24	126 nM and 150 nM and 127 nM	356 nM and 527 nM and 482 nM	7.51	134	24	24	25.1	455	24	24	51.829 µM·h and 46.654 µM·h	333 nM and 291 nM	49.2	312	36	48	
